Here are results for two molecules from patent US20070155023A1, “Identification of proteins and other species with emissive chelating label” (Massachusetts Institute of Technology, priority 2005, published 2007).

Data set [1] in a line: Photophysical properties (absorbance, emission, quantum yield) in pH 7 buffer. The settings on record: for Quantum yield Φ: no metal ion, pH 7, 22° C., relative to fluorescein. The data set is classed as physicochemical. The source says:
General Procedure. Acetonitrile (MeCN) was dried over 3 Å molecular sieves. Triethylamine (Et3N) and chloroform (CHCl3) were purchased from Aldrich and used as received. 6-Carboxy-2′,7′-dichlorofluorescein-3′,6′-diacetatesuccinimidyl ester was synthesized by a method previously developed in this laboratory. ^1N,N-Bis(carboxymethyl)-L-lysine hydrate was purchased from Fluka and used as received. ^1H and ^13C NMR spectra were acquired on either a Varian 300 Mhz or a Varian 500 MHz spectrometer and referenced to internal standards. IR spectra were collected on an Avatar 360 FT-IR instrument. Melting points were measured with a Mel-Temp apparatus. Fluorescence spectra were obtained on a Hitachi F-3020 spectrofluorimeter, and UV/vis spectra were acquired on a Cary 1E spectrophotometer. Low-resolution mass spectra were collected on an Agilent 1100 Series LC/MSD system. High-resolution mass spectra were provided by staff at the MIT Department of Chemistry Instrumentation Facility. Preliminary cell images were acquired with a Nikon Eclipse TS100 microscope equipped with an RT Diagnostics camera with illumination provided by a Chiu Mercury 100 W lamp. Magnification was 20×. The cell imaging system was operated with Spot Advanced software. Fluorescence images were obtained using a FITC-HYQ filter cube (excitation 460-500 nm, bandpass 510-560 nm). Select cell images were acquired with a LSM510 confocal microscope.
Aqueous solutions were prepared with Millipore water. A 2.25 mM stock solution of NTA-DCF in DMSO was prepared, separated into aliquots, stored at −25° C., and thawed in the dark immediately before use. All spectroscopic data were collected in a pH 7 buffer solution of 50 mM piperazine-N,N′-bis(2-ethanesulfonic acid) (PIPES) and 100 mM KCl unless noted otherwise. Solution magnetic susceptibilities were measured by the Evan's method. Spectroscopic data were taken at room temperature (22° C.). Quantum yields were measured relative to fluorescein in 0.1 M NaOH (Φ=0.95).
The photophysical properties of the signaling entity were measured to observe the effect that introduction of the NTA functionality may have on the absorbance and/or emission of the signaling entity.

The subject of another data set is HeLa cells. As to the kind of experiment: Cell permeability of living HeLa cells. The class given is in vitro ADME. The settings on record: alone or as its Ni^2+ adduct, 5 μM, 5 min, 22° C., PBS. Here is the method:
(§1) The cells as described in Example 3 were used for labeling with NTA-DCF two days after transfection with plasmid. Immediately prior to labeling, the cells were washed once with PBS. A stock solution of complexed Ni^2+-NTA-DCF was prepared by mixing 2.5 mM NiCl2 and 2.5 mM NTA-DCF in a 1:1 ratio in PBS. HeLa and HEK 293-T cells were each washed once with PBS, then incubated with 5 μM Ni^2+-NTA-DCF for 5 min at 22° C. in PBS. The cells were subsequently rinsed twice with PBS, fixed with 4% paraformaldehyde for 5 min, washed with two portions of PBS, and mounted using Vectashield anti-fading reagent (Vector Labs). As a negative control, a cell sample was incubated with NTA-DCF without added Ni^2+. In order to gauge the reversibility of staining, 5 mM EDTA was added to a sample of cells stained with 5 μM NTA-DCF and 5 μM Ni^2+. […] This impermeability can be exploited to label and image selectively proteins on the extracellular side of the cell membrane. The NTA-DCF composition was premixed with an equimolar concentration of NiCl2, and the mixture was added to a sample containing either HeLa or HEK 293-T cells.

In data set [2] the test system is cell cultures (nuclei stained with Hoechst 33285). As to the kind of experiment: Nuclear morphology study of NTA-DCF toxicity. The data set is classed as cell-based. Here is the method:
Cells were incubated with either NTA-DCF or PBS for five min, washed twice with PBS, and fixed for 5 min with 4% p-formaldehyde. After fixation, the cells were rinsed four times with PBS (5 min each wash). Hoechst 33285 dye (Molecular Probes) was added to the second rinse such that the final concentration reached 2 μg/ml.

The next data set deals with HEK 293-T cells. As to the kind of experiment: Cell permeability of living HEK 293-T cells. The class given is in vitro ADME. The settings on record: alone or as its Ni^2+ adduct, 5 μM, 5 min, 22° C., PBS. Here is the method:
as §1

The subject of data set [3] is polyhistidine sequences on HEK 293-T cells transfected with pDisplay-6×His. As to the kind of experiment: Fluorescent labeling of extracellular His6 tags on transfected HEK 293-T cells (confocal microscopy). The data set is classed as cell-based. Here is the method: (§2) This example describes the incorporation of an affinity tag within a target analyte (e.g., a cell). A polyhistidine affinity tag was incorporated within a plasmid, which was then used for transfection with the target cell. pDisplay-6×His was constructed by introduction of an oligonucleotide encoding for a His6 tag (5′-CATCATCATCATCATCAT-3′) into a pDisplay plasmid (Invitrogen) digested with BglII and SalI.
(§3) Both HeLa and HEK 293-T cells were cultured in Dulbecco's Modified Eagle Medium (DMEM) supplemented with 10% fetal calf serum (FCS, Invitrogen), glutamine (2 mM), Penicillin (100 units/mL) and Streptomycin (100 μg/mL). The cells were passed and plated on 18 mm glass coverslips coated with 0.2% gelatin 36 hours before transfection. […]
(§4) The fluorescently-labeled cells may be monitored by confocal microscopy. Confocal images of cells (NTA-DCF staining and mRFP fluorescence) were obtained with a Zeiss LSM510 microscope equipped with a 100× objective. […] Images of cells stained with Hoechst 33285 were obtained with a Zeiss Axioscope fluorescence microscope equipped with a 40× objective and a Hamamatsu digital camera. […]
(§5) A metal chelator was added to observe the effect on binding of NTA-DCF probe to the target cell. […] In the absence of EDTA or a similar metal scavenging agent, the label-protein construct persisted for at least 20 min after washing, but its stability has not yet been fully assessed.

Data set [4] concerns polyhistidine sequences on HeLa cells transfected with pDisplay-6×His. As to the kind of experiment: Fluorescent labeling of extracellular His6 tags on transfected HeLa cells (confocal microscopy). The class given is cell-based. Here is the method:
as §2, §3, §4, §5

[5] abbreviates: pDisplay-6×His, premixed with equimolar NiCl2.

With `O=C1OC2(c3cc(Cl)c(O)cc3Oc3cc(O)c(Cl)cc32)c2ccccc21` [2′,7′-dichlorofluorescein, reference compound], in data set [1] (50 mM PIPES, 100 mM KCl), the “Quantum yield Φ” value is reported as 0.88. Moreover, the “Emission λmax” value in data set [1] (pH 7 buffer) amounted to 526 nm.

One may read the melting point as the temperature, or range, at which the solid turns liquid. As to `O=C(O)CN(CC(=O)O)C(CCCCNC(=O)c1ccc(C(=O)O)c(-c2c3cc(Cl)c(=O)cc-3oc3cc(O)c(Cl)cc23)c1)C(=O)O` (centres unmarked) [NTA-DCF, N-[5-(Bis-carboxymethyl-amino)-5-carboxy-pentyl]-2-(2,7-dichloro-6-hydroxy-3-oxo-3H-xanthen-9-yl)-terephthalamic acid], the melting point is 182 °C (dec.). In the data set on HeLa cells, the Entry into cells result is “not enter”. For the same molecule, the “Toxicity (nuclear morphology study)” value in data set [2] (5-μM dose, five min incubation, FIG. 7) is listed as “not toxic”. Besides, in data set [2] (addition of NTA-DCF, five min, Hoechst staining), the “Change of size and shape of nuclei” value was “Neither the size nor shapes of the nuclei change”. The Entry into cells entry in the data set on HEK 293-T cells is recorded as “not enter”. The “Decrease in fluorescence emission upon addition of NiCl2” value in data set [1] (50 mM PIPES, 100 mM KCl, pH 7.0, FIG. 2) was determined as 5%. Moreover, in data set [1] (after chelation of Ni^2+, relative to fluorescein in 0.1 M NaOH), the “Quantum yield Φ after chelation of a paramagnetic metal ion” value was 0.72. Moreover, in data set [1] (at 504 nm), the “Extinction coefficient ε” value amounted to 86000 M⁻¹ cm⁻¹. For the same molecule, in data set [1] (50 mM PIPES, 100 mM KCl), the “Quantum yield Φ” value is reported as 0.78. In data set [1] (pH 7 buffer), the Absorption band was 504 nm and the “Emission λmax” value came out at 527 nm. Besides, the “Binding of the probe when the polyhistidine tag is not expressed” value in data set [3] (pDisplay without His6 tags, 5 μM NTA-DCF and 5 μM NiCl2, FIG. 5B) is on record as “blocked”. In data set [3] (setting [5]), the “Fluorescent labeling of polyhistidine sequences on extracellular plasma membrane surface” value is listed as “fluorescently label”. Besides, the “Binding of the probe when Ni^2+ is unavailable” value in data set [4] (5 μM NTA-DCF without NiCl2, 5 min, FIG. 4B) was “blocked”. Moreover, the “Fluorescent labeling of polyhistidine sequences on extracellular plasma membrane surface” value in data set [4] (setting [5]) is “fluorescently label”.
